In US8497254B2, “Oxadiazole derivatives as sphingosine 1-phosphate (S1P) receptor modulators” (Allergan, Inc., priority 2010, dated 2013):
pEC50: −log10 of the molar value.

Biological target: T1, human S1P1 receptor (Homo sapiens, UniProt P21453)
T1 construct: expressed in transfected cells; membranes were used
Assay: GTP γ35S binding assay for S1P1 activity
Format: biochemical
Conditions: activity potency from GTP γ35S binding; membrane protein from cells stably expressing the S1P1 receptor; 30 min at 25° C.
Experimental: Compounds were synthesized and tested for S1P1 activity using the GTP γ^35S binding assay. These compounds may be assessed for their ability to activate or block activation of the human S1P1 receptor in cells stably expressing the S1P1 receptor.
GTP γ^35S binding was measured in the medium containing (mM) HEPES 25, pH 7.4, MgCl2 10, NaCl 100, dithitothreitol 0.5, digitonin 0.003%, 0.2 nM GTP γ^35S, and 5 μg membrane protein in a volume of 150 μl. Test compounds were included in the concentration range from 0.08 to 5,000 nM unless indicated otherwise. Membranes were incubated with 100 μM 5′-adenylylimmidodiphosphate for 30 min, and subsequently with 10 μM GDP for 10 min on ice. Drug solutions and membrane were mixed, and then reactions were initiated by adding GTP γ^35S and continued for 30 min at 25° C. Reaction mixtures were filtered over Whatman GF/B filters under vacuum, and washed three times with 3 mL of ice-cold buffer (HEPES 25, pH7.4, MgCl2 10 and NaCl 100). Filters were dried and mixed with scintillant, and counted for ^35S activity using a β-counter. Agonist-induced GTP γ^35S binding was obtained by subtracting that in the absence of agonist. Binding data were analyzed using a non-linear regression method. In case of antagonist assay, the reaction mixture contained 10 nM S1P in the presence of test antagonist at concentrations ranging from 0.08 to 5000 nM.

T1 sequence (P21453 whole entry): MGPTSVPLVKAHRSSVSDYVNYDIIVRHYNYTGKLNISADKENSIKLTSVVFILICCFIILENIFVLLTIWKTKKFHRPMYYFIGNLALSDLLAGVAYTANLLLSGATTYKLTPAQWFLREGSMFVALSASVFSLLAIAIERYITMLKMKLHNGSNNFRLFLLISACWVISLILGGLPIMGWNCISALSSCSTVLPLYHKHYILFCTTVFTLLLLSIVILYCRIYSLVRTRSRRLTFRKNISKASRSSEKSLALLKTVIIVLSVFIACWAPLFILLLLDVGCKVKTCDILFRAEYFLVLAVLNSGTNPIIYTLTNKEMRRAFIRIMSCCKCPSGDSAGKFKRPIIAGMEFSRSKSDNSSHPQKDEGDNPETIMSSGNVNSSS

| SMILES | pEC50 |
| --- | --- |
| Cc1ccc(NC(c2cccc(Cl)c2)c2nc(-c3ccc(CNCCC(=O)O)cc3)no2)cc1C (stereo not shown) [3-{[4-(5-{(3-chlorophenyl)[(3,4-dimethylphenyl)amino]methyl}-1,2,4-oxadiazol-3-yl)benzyl]amino}propanoic acid] | 8.82 |
| Cc1ccc(CC(c2cccc(Cl)c2)c2nc(-c3ccc(CNCCCP(=O)(O)O)cc3)no2)cc1C (stereo not shown) [Compound 2, {3-[(4-{5-[1-(3-chlorophenyl)-2-(3,4-dimethylphenyl)ethyl]-1,2,4-oxadiazol-3-yl}benzyl)amino]propyl}phosphonic acid] | 8.42 |
| Cc1ccc(CC(c2cccc(F)c2)c2nc(-c3ccc(CNCCCP(=O)(O)O)cc3)no2)cc1C (stereo not shown) [Compound 4, {3-[(4-{5-[2-(3,4-dimethylphenyl)-1-(3-fluorophenyl)ethyl]-1,2,4-oxadiazol-3-yl}benzyl)amino]propyl}phosphonic acid] | 8.39 |
| Cc1ccc(CC(c2cc(F)cc(F)c2)c2nc(-c3ccc(CNCCC(=O)O)cc3)no2)cc1C (stereo not shown) [Compound 10, 3-[(4-{5-[1-(3,5-difluorophenyl)-2-(3,4-dimethylphenyl)ethyl]-1,2,4-oxadiazol-3-yl}benzyl)amino]propanoic acid] | 5.96 |
| Cc1ccc(CC(c2cc(F)cc(F)c2)c2nc(-c3ccc(CNCCCP(=O)(O)O)cc3)no2)cc1C (stereo not shown) [Compound 11, {3-[(4-{5-[1-(3,5-difluorophenyl)-2-(3,4-dimethylphenyl)ethyl]-1,2,4-oxadiazol-3-yl}benzyl)amino]propyl}phosphonic acid] | 8.28 |
| Cc1ccc(CC(c2cccc(C(F)(F)F)c2)c2nc(-c3ccc(CNCCC(=O)O)cc3)no2)cc1C (stereo not shown) [Compound 12, 3-{[4-(5-{2-(3,4-dimethylphenyl)-1-[3-(trifluoromethyl)phenyl]ethyl}-1,2,4-oxadiazol-3-yl)benzyl]amino}propanoic acid] | 6.47 |
| Cc1cc(C)cc(C(Cc2ccc(C)c(C)c2)c2nc(-c3ccc(CNCCC(=O)O)cc3)no2)c1 (stereo not shown) [Compound 13, 3-[(4-{5-[2-(3,4-dimethylphenyl)-1-(3,5-dimethylphenyl)ethyl]-1,2,4-oxadiazol-3-yl}benzyl)amino]propanoic acid] | 6.27 |

Results, then the compound that gave them:

| pEC50 | SMILES |
| --- | --- |
| 6.51 | Cc1ccc(CC(c2cccc(Cl)c2)c2nc(-c3ccc(CNCCC(=O)O)cc3)no2)cc1C (stereo not shown) [Compound 1, 3-[(4-{5-[1-(3-chlorophenyl)-2-(3,4-dimethylphenyl)ethyl]-1,2,4-oxadiazol-3-yl}benzyl)amino]propanoic acid] |
| 6.22 | Cc1ccc(CC(c2cccc(F)c2)c2nc(-c3ccc(CNCCC(=O)O)cc3)no2)cc1C (stereo not shown) [Compound 3, 3-[(4-{5-[2-(3,4-dimethylphenyl)-1-(3-fluorophenyl)ethyl]-1,2,4-oxadiazol-3-yl}benzyl)amino]propanoic acid] |
| 5.97 | Cc1ccc(CC(c2cccc(Cl)c2)c2nc(-c3ccc(CCC(=O)O)cc3C)no2)cc1C (stereo not shown) [Compound 6, 3-(4-{5-[1-(3-chlorophenyl)-2-(3,4-dimethylphenyl)ethyl]-1,2,4-oxadiazol-3-yl}-3-methylphenyl)propanoic acid] |
| 7.05 | Cc1ccc(CC(c2ccc(Cl)cc2)c2nc(-c3ccc(CCC(=O)O)cc3C)no2)cc1C (stereo not shown) [Compound 7, 3-(4-{5-[1-(4-chlorophenyl)-2-(3,4-dimethylphenyl)ethyl]-1,2,4-oxadiazol-3-yl}-3-methylphenyl)propanoic acid] |
| 7.77 | Cc1cccc(CC(c2cccc(Cl)c2)c2nc(-c3ccc(CCC(=O)O)cc3C)no2)c1 (stereo not shown) [Compound 8, 3-(4-{5-[1-(3-chlorophenyl)-2-(3-methylphenyl)ethyl]-1,2,4-oxadiazol-3-yl}-3-methylphenyl)propanoic acid] |
| 6.04 | Cc1ccc(CC(c2cccc(Cl)c2)c2nc(-c3ccc(C(=O)NCCC(=O)O)cc3)no2)cc1C (stereo not shown) [Compound 9, 3-[(4-{5-[1-(3-chlorophenyl)-2-(3,4-dimethylphenyl)ethyl]-1,2,4-oxadiazol-3-yl}benzoyl)amino]propanoic acid] |
